Compound in this experiment: C1COCCN1CC2=CC(=O)C(=CO2)OCCCCCSC3=C4C=CC(=CC4=NC=C3)C(F)(F)F [EHT 1864] + CS(=O)(=O)N1CCN(Cc2cc3nc(-c4cccc5[nH]ncc45)nc(N4CCOCC4)c3s2)CC1 [Pictilisib] (partner 1 µM)
Nature of the experiment: relative viability (nuclei count vs DMSO), 5 days (fraction); higher = more cells survive. In outline: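 Nuclei were stained with Hoechst during a one-step fixation (final 0.05% Triton X-100, 1% formaldehyde, 1 ug/ml Hoechst) carried out 5 days after dosing, then counted on 4× images. The cells, lung cancer lines in 1536-well plates, had been dosed by pin tool the day after seeding with one drug alone or a fixed anchor-drug dose plus five library-drug doses (not always all listed) in √10 steps. Relative viability is the nuclei count in treated wells divided by that in vehicle wells, and each value is the median of duplicate plates.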

Turning to HCC-78, the relative viability stood at 0.262 (first compound 0.04 µM); 0.209 (first compound 0.1265 µM); 0.242 (first compound 0.4 µM); 0.205 (first compound 1.265 µM); 0.25 (first compound 4 µM).

HCC-366: the relative viability (first compound 0.04 µM) came to 0.137; the relative viability (first compound 0.1265 µM) amounted to 0.146; the relative viability (first compound 0.4 µM) was 0.128; the relative viability (first compound 1.265 µM) came to 0.149; the relative viability (first compound 4 µM) was 0.138.

As to HCC-827, the relative viability by setting is: (first compound 0.04 µM) 1.15; (first compound 0.1265 µM) 1.11; (first compound 0.4 µM) 1; (first compound 1.265 µM) 0.875; (first compound 4 µM) 1.12.

In the case of HOP-62, the relative viability worked out at 0.788 (first compound 0.04 µM), 0.612 (first compound 0.4 µM), 0.804 (first compound 1.265 µM) and 1.09 (first compound 4 µM).

Turning to IA-LM, the relative viability came to 0.421 (first compound 0.04 µM), 0.38 (first compound 0.4 µM), 0.387 (first compound 1.265 µM) and 0.384 (first compound 4 µM).

Take LC-2-ad: the relative viability (first compound 0.04 µM) turned out to be 0.335, the relative viability (first compound 0.4 µM) amounted to 0.491, the relative viability (first compound 1.265 µM) is 0.503 and the relative viability (first compound 4 µM) is 0.508.

Take LCLC-97TM1: the relative viability is, setting by setting: (first compound 0.04 µM) 0.222; (first compound 0.4 µM) 0.161; (first compound 1.265 µM) 0.224; (first compound 4 µM) 0.227.

On to LCLC-103H, for which the relative viability is, setting by setting: (first compound 0.04 µM) 0.656; (first compound 0.1265 µM) 0.482; (first compound 0.4 µM) 0.667; (first compound 1.265 µM) 0.661; (first compound 4 µM) 0.547.

As for LK-2, the relative viability is, setting by setting: (first compound 0.04 µM) 0.614; (first compound 0.1265 µM) 0.487; (first compound 0.4 µM) 0.591; (first compound 1.265 µM) 0.479; (first compound 4 µM) 0.661.

For LOU-NH91, the relative viability by setting is: (first compound 0.04 µM) 0.537; (first compound 0.1265 µM) 0.507; (first compound 0.4 µM) 0.559; (first compound 1.265 µM) 0.527; (first compound 4 µM) 0.514.

For the cell line LU99A, the relative viability is, setting by setting: (first compound 0.04 µM) 0.389; (first compound 0.1265 µM) 0.276; (first compound 0.4 µM) 0.326; (first compound 1.265 µM) 0.289; (first compound 4 µM) 0.336.

For the cell line LXF-289, the relative viability (first compound 0.04 µM) was 0.788; the relative viability (first compound 0.1265 µM) is 0.766; the relative viability (first compound 0.4 µM) was found to be 0.755; the relative viability (first compound 1.265 µM) is 0.794; the relative viability (first compound 4 µM) came out at 0.727.

Consider NCI-H23, for which the relative viability (first compound 0.04 µM) was found to be 0.476, the relative viability (first compound 0.4 µM) was found to be 0.432, the relative viability (first compound 1.265 µM) was 0.593 and the relative viability (first compound 4 µM) was determined as 0.55.

With NCI-H322M, the relative viability is 0.519 (first compound 0.04 µM); 0.514 (first compound 0.1265 µM); 0.533 (first compound 0.4 µM); 0.529 (first compound 1.265 µM); 0.572 (first compound 4 µM).

On to NCI-H358, for which the relative viability worked out at 0.349 (first compound 0.04 µM), 0.342 (first compound 0.4 µM), 0.315 (first compound 1.265 µM) and 0.3 (first compound 4 µM).

Take NCI-H441: the relative viability by setting is: (first compound 0.04 µM) 0.388; (first compound 0.1265 µM) 0.359; (first compound 0.4 µM) 0.515; (first compound 1.265 µM) 0.6; (first compound 4 µM) 0.508.

Take NCI-H460: the relative viability is, setting by setting: (first compound 0.04 µM) 0.379; (first compound 0.1265 µM) 0.401; (first compound 0.4 µM) 0.365; (first compound 1.265 µM) 0.251; (first compound 4 µM) 0.345.

On to NCI-H520, for which the relative viability amounted to 0.346 (first compound 0.04 µM); 0.27 (first compound 0.1265 µM); 0.308 (first compound 0.4 µM); 0.324 (first compound 1.265 µM); 0.336 (first compound 4 µM).

NCI-H596: the relative viability was found to be 0.374 (first compound 0.04 µM); 0.445 (first compound 0.1265 µM); 0.388 (first compound 0.4 µM); 0.334 (first compound 1.265 µM); 0.373 (first compound 4 µM).

As for NCI-H647, the relative viability (first compound 0.04 µM) came to 0.56, the relative viability (first compound 0.4 µM) was determined as 0.468, the relative viability (first compound 1.265 µM) is 0.325 and the relative viability (first compound 4 µM) was 0.433.

Source of the values: the supplement of paper PMC10307832.
